This is an account of results in ChEMBL document CHEMBL1201862, “PubChem BioAssay data set” (2004).

Test systems include A549; CAKI-1; COLO 205; HCT-116; HCT-15; KM12; LOX IMVI; NCI-H226; NCI-H23; NCI-H460; OVCAR-4; OVCAR-5; SF-268; SK-OV-3; SN12C; SNB-19; TK-10; UO-31; SK-MEL-5.
What all share (assay): inhibition of tumour cell growth, NCI panel, 48 h

Molecules are shown by their SMILES.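 All cell lines were grown in 96-well plates and treated with compound for 48 hours. GI50: concentration for 50% inhibition of growth.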 Calls of active or inactive are those of the source. No stated cut-off is given here; in the data, active = GI50 up to about 1.1 µM and inactive = higher.

As for `CC(C)(C)c1cc(C(=O)O)c(C(c2ccccc2)c2ccccc2C(=O)O)c(C(=O)O)c1` (stereo unspecified), the GI50 in the assay on A549 is > 100 µM (inactive); with CAKI-1, > 100 µM (inactive); in the assay on COLO 205 it was 33.8 µM (inactive); in the assay on HCT-116, > 100 µM (inactive); in the assay on HCT-15, more than 100 µM; in the assay with KM12, > 100 µM (inactive). Further, the GI50 with LOX IMVI is > 100 µM (inactive); with NCI-H226, 35 µM (inactive); in the assay with NCI-H23, > 100 µM (inactive); with NCI-H460, > 100 µM (inactive); in the assay on OVCAR-4 it was 19.9 µM (inactive); with OVCAR-5, > 100 µM (inactive). Moreover, the GI50 in the assay with SF-268 is > 100 µM (inactive); in the assay with SK-OV-3, 21.7 µM (inactive); with SN12C, 21.9 µM (inactive); in the assay with SNB-19, > 100 µM (inactive); with TK-10, > 100 µM (inactive); in the assay on UO-31, > 100 µM (inactive).
Take `Nc1ccc(C(=O)N/C(=C\c2cccc([N+](=O)[O-])c2)c2nc3ccccc3[nH]2)cc1`: the GI50 is 51.3 µM (inactive) in the assay with A549; 47 µM (inactive) with CAKI-1; > 100 µM (inactive) in the assay with COLO 205; 41.4 µM (inactive) in the assay with HCT-116; 76.6 µM with HCT-15; > 100 µM (inactive) in the assay on KM12. Moreover, the GI50 is > 100 µM (inactive) in the assay on LOX IMVI; > 100 µM (inactive) in the assay on NCI-H226; > 75.9 µM (inactive) in the assay on NCI-H23; 74.8 µM (inactive) with NCI-H460; 25.1 µM (inactive) in the assay with OVCAR-4; > 100 µM (inactive) in the assay on OVCAR-5. Besides, the GI50 with SF-268 was 21.8 µM (inactive); with SK-MEL-5 it was 76.4 µM (inactive); in the assay with SK-OV-3 it was 29.2 µM (inactive); in the assay on SN12C it was 83.9 µM (inactive); in the assay with SNB-19, 40.6 µM (inactive); in the assay with TK-10 it was 49 µM (inactive). Moreover, the GI50 in the assay with UO-31 is 20.6 µM (inactive).
Regarding `CC1(C)O[C@@H](CC/C=C/CO)[C@H](CC/C=C/CO)O1`, the GI50 was > 100 µM (inactive) in the assay on A549; > 100 µM (inactive) in the assay with CAKI-1; > 100 µM (inactive) in the assay with COLO 205; > 100 µM (inactive) in the assay on HCT-116; more than 100 µM with HCT-15; > 100 µM (inactive) in the assay with KM12. For the same molecule, the GI50 with LOX IMVI, in the assay with NCI-H226, with NCI-H23, in the assay with NCI-H460, in the assay with OVCAR-4 and in the assay on OVCAR-5 was > 100 µM (inactive) in each case. Further, the GI50 in the assay with SF-268, with SK-MEL-5, with SK-OV-3, in the assay with SN12C, in the assay on SNB-19 and with TK-10 was > 100 µM (inactive) in each case.
As for `Cc1ccc(NC(=O)CC2SC(Nc3ccc(Cl)cc3)=NC2=O)cc1C` (stereo unspecified), the GI50 was 18.2 µM (inactive) in the assay with A549; 21.2 µM (inactive) with CAKI-1; 13.2 µM (inactive) with COLO 205; 18.1 µM (inactive) in the assay on HCT-116; 15.2 µM with HCT-15; 19.9 µM (inactive) with KM12. Further, the GI50 is 19.4 µM (inactive) with LOX IMVI; > 47.2 µM (inactive) in the assay on NCI-H226; 19 µM (inactive) in the assay on NCI-H23; 13.5 µM (inactive) in the assay with NCI-H460; 20.2 µM (inactive) in the assay with OVCAR-4; 19 µM (inactive) with OVCAR-5. Also, the GI50 in the assay on SF-268 is 18.3 µM (inactive); in the assay on SK-MEL-5, 20.3 µM (inactive); with SK-OV-3 it was > 49 µM (inactive); in the assay with SN12C, 17.9 µM (inactive); with SNB-19 it was > 78.3 µM (inactive); in the assay on TK-10, 17.3 µM (inactive). Moreover, the GI50 in the assay on UO-31 is 18.6 µM (inactive).
`CC(=O)Nc1ccc2cc(C#N)c(=O)[nH]c2n1`: the GI50 in the assay with A549 was > 100 µM (inactive); in the assay with CAKI-1 it was > 100 µM (inactive); with COLO 205 it was > 100 µM (inactive); with HCT-116, > 100 µM (inactive); with HCT-15, more than 100 µM; in the assay on KM12 it was 64.3 µM (inactive). For the same molecule, the GI50 in the assay on LOX IMVI, in the assay on NCI-H226, in the assay on NCI-H23, with NCI-H460, in the assay on OVCAR-4 and in the assay on OVCAR-5 was > 100 µM (inactive) in each case. Moreover, the GI50 in the assay with SF-268, in the assay with SK-MEL-5, in the assay on SK-OV-3, in the assay on SN12C, in the assay with SNB-19 and with TK-10 was > 100 µM (inactive) each time. Further, in the assay on UO-31, the GI50 was > 100 µM (inactive).
Turning to `N#C/C(N)=N/c1ccccc1`, the GI50 was > 100 µM (inactive) with A549; > 100 µM (inactive) in the assay on CAKI-1; > 100 µM (inactive) in the assay on COLO 205; > 100 µM (inactive) in the assay with HCT-116; more than 100 µM in the assay with HCT-15; > 100 µM (inactive) with KM12. In addition, the GI50 is 68.7 µM (inactive) with LOX IMVI; > 100 µM (inactive) in the assay with NCI-H226; > 100 µM (inactive) with NCI-H23; > 100 µM (inactive) in the assay with NCI-H460; > 100 µM (inactive) in the assay on OVCAR-4; > 100 µM (inactive) in the assay on OVCAR-5. Also, the GI50 in the assay with SF-268, in the assay on SK-MEL-5, in the assay with SK-OV-3, with SN12C, in the assay with SNB-19 and in the assay on TK-10 was > 100 µM (inactive) in each case. Also, the GI50 with UO-31 was > 100 µM (inactive).
As for `COC(=O)C(=O)C1(CCC(C)=O)c2ccccc2-c2c(C)ccc(C)c21` (stereo unspecified), the GI50 is 46.5 µM (inactive) in the assay on A549; 31.4 µM (inactive) in the assay on CAKI-1; 34.7 µM (inactive) in the assay with COLO 205; 35.7 µM (inactive) with HCT-116; 32.6 µM in the assay with HCT-15; 43 µM (inactive) in the assay on KM12. Further, the GI50 in the assay on LOX IMVI was 36.8 µM (inactive); with NCI-H226 it was > 100 µM (inactive); in the assay with NCI-H23, 24.7 µM (inactive); in the assay with NCI-H460 it was 33 µM (inactive); in the assay with OVCAR-4, 68.9 µM (inactive); in the assay on OVCAR-5, > 100 µM (inactive). Besides, the GI50 in the assay on SF-268 is 52.2 µM (inactive); in the assay on SK-MEL-5, 25.5 µM (inactive); in the assay with SK-OV-3, 84.1 µM (inactive); in the assay with SN12C, 69.2 µM (inactive); with SNB-19, > 100 µM (inactive); in the assay with TK-10 it was 39.6 µM (inactive). In addition, the GI50 in the assay with UO-31 was 25.4 µM (inactive).
Consider `O=C(O)C(C(=O)C(=O)C(C(=O)O)c1ccc(Cl)cc1)c1ccc(Cl)cc1` (stereo unspecified), for which the GI50 in the assay with A549 is 2.9 µM (inactive); in the assay with CAKI-1 it was 4.13 µM (inactive); in the assay on COLO 205, 6.44 µM (inactive); with HCT-116, 3.1 µM (inactive); in the assay with KM12, 3.75 µM (inactive); in the assay on LOX IMVI it was 2.56 µM (inactive). In addition, the GI50 in the assay with NCI-H226 was 4.58 µM (inactive); in the assay with NCI-H23 it was 2 µM (inactive); in the assay with NCI-H460 it was 3.46 µM (inactive); in the assay on OVCAR-4, 1.89 µM (inactive); in the assay with OVCAR-5, 4.25 µM (inactive); with SF-268, 2.9 µM (inactive). Besides, the GI50 in the assay with SK-OV-3 was 5.89 µM (inactive); in the assay on SN12C it was 2.94 µM (inactive); in the assay with SNB-19, 3.68 µM (inactive); in the assay with TK-10 it was 4.57 µM (inactive); in the assay on UO-31 it was 4.72 µM (inactive).
Consider `CC(=O)c1ccc(NC(=O)COC(=O)c2cccc3c(=O)c4ccccc4[nH]c23)cc1`, for which the GI50 is 45.4 µM (inactive) in the assay with A549; > 100 µM (inactive) with CAKI-1; 33.6 µM (inactive) with COLO 205; 12.2 µM (inactive) in the assay on HCT-116; 12.9 µM (inactive) in the assay on KM12; 13.4 µM (inactive) in the assay on LOX IMVI. In addition, the GI50 is 19.4 µM (inactive) with NCI-H226; 18.6 µM (inactive) with NCI-H23; 22.6 µM (inactive) in the assay with NCI-H460; 6.79 µM (inactive) with OVCAR-4; 20.5 µM (inactive) with SF-268; 29.4 µM (inactive) in the assay on SK-MEL-5. Further, the GI50 with SK-OV-3 is 67.8 µM (inactive); in the assay on SN12C, 16.1 µM (inactive); in the assay on SNB-19 it was 22.5 µM (inactive); in the assay on TK-10, 21.7 µM (inactive); in the assay with UO-31, 96.2 µM (inactive).
Regarding `CCOC(=O)c1cc(/C=C/C(C)=C/C(=O)OC)n(C)c1C`, the GI50 is > 100 µM (inactive) in the assay on A549; > 100 µM (inactive) with CAKI-1; > 100 µM (inactive) with COLO 205; 63.8 µM in the assay with HCT-15; 59.2 µM (inactive) with KM12; > 100 µM (inactive) in the assay on LOX IMVI. Besides, the GI50 in the assay with NCI-H226 is > 100 µM (inactive); in the assay on NCI-H23, > 100 µM (inactive); in the assay with NCI-H460, > 100 µM (inactive); in the assay on OVCAR-4, 60.7 µM (inactive); with OVCAR-5 it was > 100 µM (inactive); with SF-268 it was 52.4 µM (inactive). Moreover, the GI50 with SK-MEL-5 is 52.1 µM (inactive); in the assay with SK-OV-3, > 100 µM (inactive); in the assay with SN12C, > 100 µM (inactive); in the assay on SNB-19, > 100 µM (inactive); in the assay on TK-10, > 100 µM (inactive); with UO-31 it was > 100 µM (inactive).
Regarding `CCCCCCCCCCCCCP(=O)(OC)OC`, the GI50 was 21.2 µM (inactive) in the assay with A549; 18 µM (inactive) in the assay with CAKI-1; 20 µM (inactive) in the assay with COLO 205; 19.6 µM (inactive) in the assay with HCT-116; 17.7 µM in the assay with HCT-15; 17.5 µM (inactive) in the assay with KM12. In addition, the GI50 with LOX IMVI was 19.3 µM (inactive); with NCI-H226, 19.2 µM (inactive); in the assay on NCI-H23, 18.7 µM (inactive); in the assay with NCI-H460, 17.1 µM (inactive); with OVCAR-4 it was 19.8 µM (inactive); in the assay on OVCAR-5, 16.5 µM (inactive). In addition, the GI50 in the assay on SK-MEL-5 was 18.6 µM (inactive); in the assay on SK-OV-3, 19 µM (inactive); in the assay with SN12C it was 20.2 µM (inactive); in the assay with SNB-19 it was 20.8 µM (inactive); with TK-10 it was 17.8 µM (inactive); in the assay with UO-31, 16.3 µM (inactive).
